In ChEMBL document CHEMBL3751787, “Novel chromenedione derivatives displaying inhibition of protein tyrosine phosphatase 1B (PTP1B) from Flemingia philippinensis” (Bioorg Med Chem Lett, 2016):

What was measured:
[1] = biological target: T1, Tyrosine-protein phosphatase non-receptor type 1 (Homo sapiens, UniProt P18031); test: Inhibition of human recombinant PTP1B using p-nitrophenyl phosphate as substrate by spectrophotometric analysis
T1 sequence (P18031 whole entry): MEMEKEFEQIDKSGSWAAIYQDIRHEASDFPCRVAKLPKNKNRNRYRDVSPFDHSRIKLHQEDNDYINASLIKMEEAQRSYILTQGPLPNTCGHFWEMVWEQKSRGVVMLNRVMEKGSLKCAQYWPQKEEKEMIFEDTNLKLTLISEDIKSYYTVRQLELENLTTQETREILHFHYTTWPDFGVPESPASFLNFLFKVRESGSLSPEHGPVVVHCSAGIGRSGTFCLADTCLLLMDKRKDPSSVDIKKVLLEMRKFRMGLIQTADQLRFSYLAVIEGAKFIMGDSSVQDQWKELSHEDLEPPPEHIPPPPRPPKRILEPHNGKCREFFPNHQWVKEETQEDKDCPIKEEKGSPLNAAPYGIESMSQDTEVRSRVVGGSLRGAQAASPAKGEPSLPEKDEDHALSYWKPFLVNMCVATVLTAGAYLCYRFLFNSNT

[2] = biological target: T1, Tyrosine-protein phosphatase non-receptor type 1; test: Non-competitive inhibition of human recombinant PTP1B using p-nitrophenyl phosphate as substrate by spectrophotometry based Lineweaver-Burk plot
[3] = biological target: T1, Tyrosine-protein phosphatase non-receptor type 1; test: Competitive inhibition of human recombinant PTP1B using p-nitrophenyl phosphate as substrate by spectrophotometry based Lineweaver-Burk plot

SMILES | IC50 [1] | Ki [2] | Ki [3]
CC(C)=CCc1c(O)c(CC=C(C)C)c2occ(-c3ccc(O)c(O)c3)c(=O)c2c1O | 2.4 µM | 2.5 µM | 
COc1ccc(CCC(=O)C2=C(O)C(CC=C(C)C)=C3OC(C)(C)C=CC3(CC=C(C)C)C2=O)cc1O (stereo unspecified) | 29.4 µM |  | 17.6 µM
COc1ccc(CC/C(O)=C2\C(=O)C(CC=C(C)C)=C3OC(C)(C)C=CC3(CC=C(C)C)C2=O)cc1O (stereo unspecified) | 20.2 µM |  | 12.3 µM
COc1ccc(CCC(=O)C2=C(O)C(CC=C(C)C)=C3OC(C)(C)C=CC3(CC=C(C)C)C2=O)cc1 (stereo unspecified) | 6.5 µM |  | 3.4 µM
CC(C)=CCc1c(O)c(CC=C(C)C)c2occ(-c3ccc(O)cc3)c(=O)c2c1O | 9.3 µM | 9.6 µM | 
CC(C)=CCc1c2c(c(O)c3c(=O)c(-c4ccc(O)c(O)c4)coc13)C=CC(C)(C)O2 [AURICULASIN] | 3.6 µM | 4.4 µM | 
COc1cc(-c2coc3c(CC=C(C)C)c(O)c(CC=C(C)C)c(O)c3c2=O)ccc1O [FLEMINGSIN] | 17.4 µM | 19.2 µM | 
CC(C)=CCc1c2c(c3occ(-c4ccc(O)cc4)c(=O)c3c1O)C=CC(C)(C)O2 [OSAJIN] | 23.6 µM | 29.9 µM | 
